# Key:
# human lymphoblast cells [1] = system: human lymphoblast cells
# human lymphoblast cells [2] = assay type: cell-based
SMILES,effect on cytotoxicity of PbTx-2 (LDH activity) (human lymphoblast cells [1]),reduction of PbTx-2 cytotoxicity (human lymphoblast cells [1]),effect on redox state of the proteome (human lymphoblast cells [2])
"O=S(=O)(O)CCS [MESNA, sodium mercaptoethyl sulfonate]",significantly reduced cytotoxicity,approximately 50%,restored to control levels
NCCS [cysteamine],significantly reduced cytotoxicity,–,–

# Reference: patent US11779551B1 (priority 2022, dated 2023)
